Key:
[1] = for mass density: 101.33 kPa, Liquid
[2] = xn = mol fraction of the nth substance listed

OCc1ccccc1 [benzenemethanol]
[1]
Details | mass density [kg/m3] | surface tension liquid-gas [mN/m]
293.15 K | 1045.2 | 39.05
298.15 K | 1041.4 | 38.58
303.15 K | – | 38.12
308.15 K | – | 37.63
313.15 K | 1029.8 | 37.16
318.15 K | – | 36.63
323.15 K | – | 36.18

OCc1ccccc1 [benzenemethanol] + C1CCCCC1
surface tension liquid-gas [mN/m], [2]
Details | x2 = 0 | x2 = 0.0068 | x2 = 0.0079 | x2 = 0.0107 | x2 = 0.0202 | x2 = 0.0312 | x2 = 0.0409 | x2 = 0.0655
293.15 K | 39.05 | 37.88 | 37.73 | 37.48 | 37.07 | 36.53 | 35.88 | 34.14
298.15 K | 38.58 | 37.43 | 37.39 | 37.15 | 36.68 | 36.25 | 35.66 | 34.04
303.15 K | 38.12 | 37.06 | 36.93 | 36.74 | 36.32 | 35.98 | 35.41 | 33.94
308.15 K | 37.63 | 36.66 | 36.54 | 36.38 | 35.92 | 35.73 | 35.22 | 33.82
313.15 K | 37.16 | 36.29 | 36.12 | 35.99 | 35.58 | 35.47 | 34.96 | 33.72
318.15 K | 36.63 | 35.84 | 35.74 | 35.66 | 35.24 | 35.22 | 34.77 | 33.61
323.15 K | 36.18 | 35.5 | 35.32 | 35.25 | 34.86 | 34.96 | 34.53 | 33.5

OCc1ccccc1 [benzenemethanol] + CCCCCC
surface tension liquid-gas [mN/m], [2]
Details | x2 = 0 | x2 = 0.0068 | x2 = 0.0085 | x2 = 0.0198 | x2 = 0.0215 | x2 = 0.0264 | x2 = 0.0493 | x2 = 0.07
293.15 K | 39.05 | 37.39 | 37.24 | 34.45 | 33.73 | 33.22 | 30.61 | 27.46
298.15 K | 38.58 | 37.1 | 36.85 | 34.74 | 34.04 | 33.56 | 31.06 | 27.96
303.15 K | 38.12 | 36.84 | 36.41 | 35.03 | 34.38 | 33.86 | 31.54 | 28.72
308.15 K | 37.63 | 36.53 | 36.01 | 35.35 | 34.69 | 34.25 | 31.92 | 29.29
313.15 K | 37.16 | 36.3 | 35.6 | 35.63 | 34.99 | 34.59 | 32.35 | 29.9

OCc1ccccc1 [benzenemethanol] + CCCCCCC
surface tension liquid-gas [mN/m], [2]
Details | x2 = 0 | x2 = 0.0065 | x2 = 0.009 | x2 = 0.0112 | x2 = 0.0238 | x2 = 0.0306 | x2 = 0.0445 | x2 = 0.067
293.15 K | 39.05 | 37.77 | 37.07 | – | 33.61 | 32.37 | 28.84 | 26.09
298.15 K | 38.58 | 37.47 | 36.87 | 34.69 | 33.83 | 32.58 | 29.16 | 26.47
303.15 K | 38.12 | 37.1 | 36.62 | 35.02 | 34.05 | 32.82 | 29.43 | 26.89
308.15 K | 37.63 | 36.78 | 36.41 | 35.28 | 34.27 | 33.04 | 29.68 | 27.27
313.15 K | 37.16 | 36.49 | 36.16 | 35.53 | 34.48 | 33.24 | 30 | 27.7
318.15 K | 36.63 | 36.18 | 35.95 | 35.83 | 34.7 | 33.46 | 30.3 | 28.08
323.15 K | 36.18 | 35.92 | 35.74 | 36.11 | 34.95 | 33.68 | 30.61 | 28.46

OCc1ccccc1 [benzenemethanol] + CCCCCCCCC
surface tension liquid-gas [mN/m], [2]
Details | x2 = 0 | x2 = 0.0061 | x2 = 0.008 | x2 = 0.0116 | x2 = 0.0204 | x2 = 0.0329 | x2 = 0.0408 | x2 = 0.0668
293.15 K | 39.05 | 36.83 | 36.33 | 35.34 | 32.52 | 30.44 | 28.73 | 26.66
298.15 K | 38.58 | 36.4 | 35.95 | 35.13 | 32.31 | 30.23 | 28.52 | 26.56
303.15 K | 38.12 | 35.85 | 35.52 | 34.59 | 32.02 | 30 | 28.22 | 26.38
308.15 K | 37.63 | 35.51 | 35.21 | 34.33 | 31.83 | 29.85 | 28.03 | 26.28
313.15 K | 37.16 | 35.03 | 34.84 | 33.98 | 31.61 | 29.62 | 27.82 | 26.19
318.15 K | 36.63 | 34.61 | 34.5 | 33.67 | 31.41 | 29.44 | 27.67 | 26.12
323.15 K | 36.18 | 34.25 | 34.16 | 33.32 | 31.22 | 29.25 | 27.46 | 26.02

C1CCCCC1 [cyclohexane]
[1]
Details | mass density [kg/m3] | surface tension liquid-gas [mN/m]
293.15 K | 778.6 | 25.06
298.15 K | 773.9 | 24.45
303.15 K | – | 23.87
308.15 K | – | 23.21
313.15 K | 759.6 | 22.71
318.15 K | – | 22.05
323.15 K | – | 21.45

C1CCCCC1 [cyclohexane] + OCc1ccccc1
[2], x1 = 1
Details | surface tension liquid-gas [mN/m]
293.15 K | 25.06
298.15 K | 24.45
303.15 K | 23.87
308.15 K | 23.21
313.15 K | 22.71
318.15 K | 22.05
323.15 K | 21.45

CCCCCCC [heptane]
[1]
Details | mass density [kg/m3] | surface tension liquid-gas [mN/m]
293.15 K | 696 | 20.05
298.15 K | 691.9 | 19.54
303.15 K | – | 19.1
308.15 K | – | 18.58
313.15 K | 680 | 18.08
318.15 K | – | 17.6
323.15 K | – | 17.06

CCCCCCC [heptane] + OCc1ccccc1
[2], x1 = 1
Details | surface tension liquid-gas [mN/m]
293.15 K | 20.05
298.15 K | 19.54
303.15 K | 19.1
308.15 K | 18.58
313.15 K | 18.08
318.15 K | 17.6
323.15 K | 17.06

CCCCCC [hexane]
[1]
Details | mass density [kg/m3] | surface tension liquid-gas [mN/m]
293.15 K | 660.2 | 18.56
298.15 K | 655.4 | 18.03
303.15 K | – | 17.44
308.15 K | – | 16.92
313.15 K | 641.4 | 16.38

CCCCCC [hexane] + OCc1ccccc1
[2], x1 = 1
Details | surface tension liquid-gas [mN/m]
293.15 K | 18.56
298.15 K | 18.03
303.15 K | 17.44
308.15 K | 16.92
313.15 K | 16.38

CCCCCCCCC [nonane]
[1]
Details | mass density [kg/m3] | surface tension liquid-gas [mN/m]
293.15 K | 717.7 | 23.04
298.15 K | 713.9 | 22.49
303.15 K | – | 22.04
308.15 K | – | 21.49
313.15 K | 694.2 | 20.94
318.15 K | – | 20.47
323.15 K | – | 19.98

CCCCCCCCC [nonane] + OCc1ccccc1
[2], x1 = 1
Details | surface tension liquid-gas [mN/m]
293.15 K | 23.04
298.15 K | 22.49
303.15 K | 22.04
308.15 K | 21.49
313.15 K | 20.94
318.15 K | 20.47
323.15 K | 19.98
